Results from PubChem BioAssay (NCI).
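Step 1: Grow cells in 96-well plates. Step 2: Expose to compound for 48 hours at 5 concentrations. Step 3: Interpolate endpoints linearly; if unreached, use highest concentration. TGI is the concentration that stops growth completely.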

Key:
Experiment in all cases: growth of human tumour cells (NCI), 48 h
[1] = test system: SW-620 colon
[2] = test system: SK-MEL-2 melanoma
[3] = test system: SF-539 CNS
[4] = test system: SNB-75 CNS
[5] = test system: HCT-116 colon
[6] = test system: A498 renal
[7] = test system: DU-145 prostate
[8] = test system: K-562 leukemia
[9] = test system: KM12 colon
[10] = test system: OVCAR-8 ovarian

Structure (SMILES)	TGI [1]	TGI [2]	TGI [3]	TGI [4]	TGI [5]	TGI [6]	TGI [7]	TGI [8]	TGI [9]	TGI [10]
C/C(=N\Nc1ccccc1)C(CN(C)C)C(c1ccccc1)c1c(O)c2ccccc2oc1=O (stereo not given)	> 100 µM	> 100 µM	> 100 µM	> 100 µM	> 100 µM	> 100 µM	> 100 µM	> 100 µM	> 100 µM	> 100 µM
CC/C(Cl)=N\OC(=O)Nc1ccc(F)cc1F	2.95 µM	33.1 µM	23.5 µM	47.1 µM	19.1 µM	74.8 µM	32.2 µM	2.34 µM	41.3 µM	37.3 µM
O=C1CC2(CCNCC2)C(=O)N1N1CCOCC1	> 100 µM	> 100 µM	> 100 µM	> 100 µM	> 100 µM	> 100 µM	> 100 µM	> 100 µM	> 100 µM	> 100 µM
CC(C)(C)OC(=O)N1CCc2c(n(C/C=C/c3ccccc3)[nH]c2=O)C1	> 100 µM	> 100 µM	> 100 µM	> 100 µM	> 100 µM	> 100 µM	> 100 µM	> 100 µM	> 100 µM	> 100 µM
O=C1C=C(N2CCN(c3ccccn3)CC2)C(=O)c2c(O)ccc(O)c21	45.2 µM	18.6 µM	22.3 µM	23.7 µM	10.3 µM	52.2 µM	> 55.5 µM	36.2 µM	> 46.4 µM	> 90.8 µM
CC(C)(C)c1c(C(C)(C)C)c(=O)c1=O	> 100 µM	> 100 µM	> 100 µM	> 100 µM	> 100 µM	> 100 µM	> 100 µM	> 100 µM	> 100 µM	> 100 µM
N#CCCC1(CCC#N)CCCCCCC(CCC#N)(CCC#N)C(O)C1O (stereo not given)	> 100 µM	> 100 µM	> 100 µM	> 100 µM	> 100 µM	> 100 µM	> 100 µM	> 100 µM	> 100 µM	> 100 µM
NC(=O)C1=CC2C3C=CC2(O)C(=O)OC3O1 (stereo not given)	28.6 µM	> 40.2 µM	15.7 µM	29.4 µM	7.41 µM	59.3 µM	14.2 µM	> 100 µM	11.4 µM	6.66 µM
O=C1CSc2nnc(CCCCCCCCc3nnc4n3NC(=O)CS4)n2N1	> 100 µM	> 100 µM	> 100 µM	> 100 µM	> 100 µM	> 100 µM	> 100 µM	> 100 µM	> 100 µM	> 100 µM
Cc1ccc(/C=C2\CN(C)CC3C2=NC(=S)NC3c2ccc(C)cc2)cc1 (stereo not given)	> 100 µM	> 100 µM	> 100 µM	> 100 µM	> 100 µM	> 100 µM	> 100 µM	> 100 µM	> 100 µM	> 100 µM
O=S(=O)(O)C1CCC(O)C2[N-]CCCC21.O=S(=O)(O)C1CCC(O)C2[N-]CCCC21.[Zn+2] (stereo not given)	> 100 µM	> 100 µM	> 100 µM	> 100 µM	> 100 µM	> 100 µM	> 100 µM	> 100 µM	> 100 µM	> 100 µM
Cc1c2cccc-2ccc2c1[nH]c1ccccc12	7.68 µM	3.39 µM	3.42 µM	4.33 µM	4.96 µM	28.5 µM	15.7 µM	11 µM	5.57 µM	7.07 µM
CCN(CC)CCN(C)CCc1ccc(Br)cc1	> 100 µM	> 100 µM	> 100 µM	> 100 µM	> 100 µM	60.4 µM	> 100 µM	> 100 µM	> 100 µM	> 100 µM
CC1=C2NCN(C)N=C2C(C#N)(C#N)C1(C#N)C#N	42.2 µM	> 100 µM	64.4 µM	> 87.9 µM	57.4 µM	> 100 µM	> 75 µM	> 100 µM	> 100 µM	> 58.2 µM
CCCNC(=O)CCC(C)[C@H]1CCC2C3C(C[C@H](OC(C)=O)[C@@]21C)[C@@]1(C)CCC2(C[C@H]1C[C@H]3OC(C)=O)OOC1(CCCCC1)OO2 (stereo not given in full)	> 75.5 µM	7.05 µM	16 µM	6.86 µM	> 61.5 µM	50.1 µM	3.36 µM	> 60.8 µM	3.56 µM	4.3 µM
Cn1c(=O)sc2cc(C(=S)N3CCOCC3)ccc21	> 100 µM	> 100 µM	> 100 µM	> 95.3 µM	> 100 µM	> 100 µM	> 100 µM	> 100 µM	> 100 µM	> 100 µM
CC(C)=CCC[C@@H](C)c1c2[nH]c3ccccc3sc-2c(C)c(=O)c1=O	> 75 µM	30.7 µM	16.3 µM	> 43.3 µM	21.8 µM	35.5 µM	> 75 µM	> 75 µM	> 35.2 µM	13.8 µM
O=C(/C=C/c1ccco1)c1cccc(C(=O)/C=C/c2ccco2)n1	10.4 µM	> 58.6 µM	17.5 µM	> 100 µM	18.5 µM	> 100 µM	> 100 µM	> 100 µM	> 55.8 µM	8.83 µM
CCOC(=O)/C(C#N)=C/N(CC)/N=C/c1ccccc1	> 100 µM	> 100 µM	> 100 µM	> 100 µM	> 100 µM	> 100 µM	> 100 µM	> 100 µM	> 100 µM	> 100 µM
